Experimental data: patent publication US20240018119A1, “CARBOXAMIDE DERIVATIVE AND PHARMACEUTICAL COMPOSITION COMPRISING SAME AS ACTIVE INGREDIENT FOR PREVENTING OR TREATING MENTAL ILLNESS” (DAEGU-GYEONGBUK MEDICAL INNOVATION FOUNDATION, priority 2020, published 2024)

Tests used:
Format in all cases: cell-based
[1] = target: T1, dopamine transporter (Homo sapiens, UniProt Q01959); assay: Dopamine reuptake inhibition in transporter-transfected HEK-293 cells ([3H]-DA); conditions: for Triple reuptake inhibition (Ratio %) DAT: compound 1 μM, 20-30 nM [3H]-DA, relative to control without compound (100%), lower = more inhibition; for IC50: concentration at which Ratio % is 50%, 6 concentrations 1 nM to 1 μM, read-out: Triple reuptake inhibition (IC50, μM) DAT
T1 construct: expressed in transfected cells; host or cells: HEK-293
Description: (§1) To evaluate the reuptake inhibitory effect on dopamine, the dopamine transporter cDNA was transfected using the HEK-293 cell line, and then sub-seeded in a 24 well plate the next day. After removing the medium, each compound of the Examples or Comparative Examples diluted to 1 μM in uptake buffer was added to a concentration of 200 μl/well and cultured at 37° C. for 15 minutes. 100 μl of uptake buffer containing 20-30 nM [3H]-DA was added and cultured at 37° C. for 5 minutes. The reaction solution was quickly removed and washed three times with 1 ml ice-cold uptake buffer. After dissolving the resultant in 1% SDS (0.5 ml), the degree of binding of radioisotope-labeled dopamine to the transporter was measured.
(§2) In addition, when evaluating the reuptake inhibitory effect on dopamine, norepinephrine, and serotonin, the same method was performed without treating each compound of the Examples or Comparative Examples as a control, the degree of binding of radioisotope-labeled dopamine, norepinephrine, and serotonin to the transporter was measured, and by using this as a standard (100%), the triple reuptake inhibitory effect was evaluated as a relative ratio (Ratio %). That is, in the control group, the binding of dopamine, norepinephrine, and serotonin to transporters is not inhibited, but when each compound of the Examples is treated and thus the binding is inhibited, the Patio % value decreases.
(§3) Meanwhile, the Patio % values were compared, and in the case of the compounds of Examples 6, 9, 10, 19, 20, 22, 24, 28, 30, 31, 32, 33, 35, 41, 42, 48, 49, 51, 55, 56, 59, 61, 63, 64, 65, 66, 74 and 76 with excellent reuptake inhibitory effects on dopamine, norepinephrine and serotonin, the concentration at which the Ratio % is 50% was calculated using a total of 6 concentrations (1 nM, 5 nM, 10 nM, 50 nM, 100 nM, and 1 μM) and expressed as IC50. In addition, in the case of the compound of Comparative Example 1, IC50 was obtained by the same method as the Example Compounds.

[2] = target: T2, norepinephrine transporter (Homo sapiens, UniProt P23975); assay: Norepinephrine reuptake inhibition in transporter-transfected HEK-293 cells ([3H]-NE); conditions: for Triple reuptake inhibition (Ratio %) NET: compound 1 μM, [3H]-NE, relative to control without compound (100%), lower = more inhibition; for IC50: concentration at which Ratio % is 50%, 6 concentrations 1 nM to 1 μM, read-out: Triple reuptake inhibition (IC50, μM) NET
T2 construct: expressed in transfected cells; host or cells: HEK-293
Description: as §1
(§4) For norepinephrine (NE) and serotonin (5-HT), the degree of binding of radioisotope-labeled norepinephrine or serotonin to the transporter was measured in the same manner as above, except that cells transfected with NE or 5-HT transporter cDNA were used and [3H]-NE or [3H]-5-HT was used as a substrate.
as §2, §3

[3] = target: T3, serotonin transporter (Homo sapiens, UniProt P31645); assay: Serotonin reuptake inhibition in transporter-transfected HEK-293 cells ([3H]-5-HT); conditions: for Triple reuptake inhibition (Ratio %) SERT: compound 1 μM, [3H]-5-HT, relative to control without compound (100%), lower = more inhibition; for IC50: concentration at which Ratio % is 50%, 6 concentrations 1 nM to 1 μM, read-out: Triple reuptake inhibition (IC50, μM) SERT
T3 construct: expressed in transfected cells; host or cells: HEK-293
Description: as §1, §4, §2
In addition, in the case of the compound of Comparative Example 1, IC50 was obtained by the same method as the Example Compounds.

T2 sequence (P23975 whole entry, species assumed): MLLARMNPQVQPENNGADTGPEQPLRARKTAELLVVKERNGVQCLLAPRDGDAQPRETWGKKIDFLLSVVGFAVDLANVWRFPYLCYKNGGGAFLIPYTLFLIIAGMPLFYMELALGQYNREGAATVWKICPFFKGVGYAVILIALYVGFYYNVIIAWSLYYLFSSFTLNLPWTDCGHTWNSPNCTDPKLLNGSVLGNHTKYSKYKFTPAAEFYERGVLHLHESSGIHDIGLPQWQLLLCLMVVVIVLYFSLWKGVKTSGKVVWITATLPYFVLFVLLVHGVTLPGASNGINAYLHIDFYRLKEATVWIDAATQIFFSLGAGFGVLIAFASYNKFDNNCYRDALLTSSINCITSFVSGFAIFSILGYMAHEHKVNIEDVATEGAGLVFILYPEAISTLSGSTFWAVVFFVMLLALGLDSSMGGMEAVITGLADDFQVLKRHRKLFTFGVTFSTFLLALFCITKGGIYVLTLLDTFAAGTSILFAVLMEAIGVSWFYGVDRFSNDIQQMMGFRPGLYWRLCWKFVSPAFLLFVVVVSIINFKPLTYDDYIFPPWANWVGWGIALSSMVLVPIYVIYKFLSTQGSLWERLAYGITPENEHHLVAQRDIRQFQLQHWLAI
T1 sequence (Q01959 whole entry): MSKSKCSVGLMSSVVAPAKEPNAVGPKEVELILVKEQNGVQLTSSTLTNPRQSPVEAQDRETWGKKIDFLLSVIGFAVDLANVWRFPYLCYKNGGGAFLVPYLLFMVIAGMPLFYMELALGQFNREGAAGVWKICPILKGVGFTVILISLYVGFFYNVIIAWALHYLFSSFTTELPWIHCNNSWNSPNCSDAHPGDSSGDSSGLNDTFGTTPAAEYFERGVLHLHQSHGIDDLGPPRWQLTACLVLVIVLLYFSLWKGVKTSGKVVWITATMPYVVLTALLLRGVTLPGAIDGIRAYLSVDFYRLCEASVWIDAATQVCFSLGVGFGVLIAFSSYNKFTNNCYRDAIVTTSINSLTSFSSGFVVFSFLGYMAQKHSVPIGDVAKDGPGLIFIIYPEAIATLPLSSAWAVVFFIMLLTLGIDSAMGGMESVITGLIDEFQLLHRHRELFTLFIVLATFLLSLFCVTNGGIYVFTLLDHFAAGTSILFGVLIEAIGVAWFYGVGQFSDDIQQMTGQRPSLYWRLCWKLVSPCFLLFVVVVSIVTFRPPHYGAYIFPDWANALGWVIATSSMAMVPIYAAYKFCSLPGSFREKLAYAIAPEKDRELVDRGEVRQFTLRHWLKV
T3 sequence (P31645 whole entry): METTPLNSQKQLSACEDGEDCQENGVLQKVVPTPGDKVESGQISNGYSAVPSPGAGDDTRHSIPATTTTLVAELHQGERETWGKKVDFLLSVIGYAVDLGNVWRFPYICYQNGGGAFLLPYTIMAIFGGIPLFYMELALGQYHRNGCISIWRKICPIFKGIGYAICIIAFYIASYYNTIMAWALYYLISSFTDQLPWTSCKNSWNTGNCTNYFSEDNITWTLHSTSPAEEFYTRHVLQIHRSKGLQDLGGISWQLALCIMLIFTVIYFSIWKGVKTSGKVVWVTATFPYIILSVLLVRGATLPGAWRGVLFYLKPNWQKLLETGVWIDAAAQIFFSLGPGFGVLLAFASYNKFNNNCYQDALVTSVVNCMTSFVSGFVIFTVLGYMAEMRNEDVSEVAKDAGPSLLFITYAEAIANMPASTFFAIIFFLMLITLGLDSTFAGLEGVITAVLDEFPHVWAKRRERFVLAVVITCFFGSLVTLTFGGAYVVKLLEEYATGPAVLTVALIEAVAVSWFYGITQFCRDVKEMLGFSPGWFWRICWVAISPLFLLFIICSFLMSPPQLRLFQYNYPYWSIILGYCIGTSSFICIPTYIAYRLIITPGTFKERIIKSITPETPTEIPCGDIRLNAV

| Triple reuptake inhibition (Ratio %) DAT [1] [%] | IC50 [1] [µM] | Triple reuptake inhibition (Ratio %) NET [2] [%] | IC50 [2] [µM] | Triple reuptake inhibition (Ratio %) SERT [3] [%] | IC50 [3] [µM] | SMILES |
| --- | --- | --- | --- | --- | --- | --- |
| 17.60 | 0.198 | 43.43 | 0.257 | 45.80 | 0.198 | COc1ccc2[nH]c(C(=O)NCCN3CCC(Cc4ccccc4)CC3)nc2c1 [Example 59, N-(2-(4-benzylpiperidin-1-yl)ethyl)-5-methoxy-1H-benzo[d]imidazol-2-carboxamide] |
| 110.91 | – | 102.98 | – | 91.05 | – | O=C(NCCNC(=O)c1cc2ccccc2[nH]1)c1ccc2ccccc2c1 [Example 45, N-(2-(2-naphthamido)ethyl)-1H-indol-2-carboxamide] |
| 40.9 | – | 63.99 | – | 76.27 | – | O=C(NCCN1CCC(Cc2ccccc2)CC1)c1cc2c(Cl)cc(Cl)cc2[nH]1 [Example 39, N-(2-(4-benzylpiperidin-1-yl)ethyl)-4,6-dichloro-1H-indol-2-carboxamide] |
| 73.05 | – | 85.48 | – | 94.19 | – | O=C(NC1CCC(Cc2ccccc2)CC1)c1cc2ccccc2[nH]1 (stereo not drawn) [Example 44, N-(4-benzylcyclohexyl)-1H-indol-2-carboxamide] |
| 41.61 | 0.636 | 83.07 | – | 27.71 | 0.331 | O=C(NCCN1CCC(Cc2ccc(Cl)c(Cl)c2)CC1)c1cc2cc(F)ccc2[nH]1 [Example 51, N-(2-(4-(3,4-dichlorobenzyl)piperidin-1-yl)ethyl)-5-fluoro-1H-indol-2-carboxamide] |
| 7.57 | 0.049 | 73.83 | 5.73 | 10.79 | 0.044 | O=C(NCCN1CCC(Cc2ccc(Cl)c(Cl)c2)CC1)c1cc2cc(O)c(O)cc2[nH]1 [Example 65, N-(2-(4-(3,4-dichlorobenzyl)piperidin-1-yl)ethyl)-5,6-dihydroxy-1H-indol-2-carboxamide] |
| 108.32 | – | 93.21 | – | 100.83 | – | O=C(NCC(=O)N1CCC(Cc2ccccc2)CC1)c1cc2ccccc2[nH]1 [Example 50, N-(2-(4-benzylpiperidin-1-yl)-2-oxoethyl)-1H-indol-2-carboxamide] |
| 13.34 | 0.087 | 48.43 | 0.092 | 38.25 | 0.369 | O=C(NCCN1CCC(Cc2ccccc2)CC1)c1cc2cc(O)c(O)cc2[nH]1 [Example 63, N-(2-(4-benzylpiperidin-1-yl)ethyl)-5,6-dihydroxy-1H-indol-2-carboxamide] |
| 33.58 | – | 57.01 | – | 88.39 | – | O=C(NCCN1CCC(Cc2ccccc2)CC1)c1c[nH]c2ccccc12 [Example 73, N-(2-(4-benzylpiperidin-1-yl)ethyl)-1H-indol-3-carboxamide] |
| 90.63 | – | 100.99 | – | 87.07 | – | CN(CCNC(=O)c1cc2ccccc2[nH]1)Cc1ccc2ccccc2c1 [Example 68, N-(2-(methyl(napthalen-2-ylmethyl)amino)ethyl)-1H-indol-2-carboxamide] |

The remaining lines, values behind:

| SMILES | Triple reuptake inhibition (Ratio %) DAT [1] [%] | IC50 [1] [µM] | Triple reuptake inhibition (Ratio %) NET [2] [%] | IC50 [2] [µM] | Triple reuptake inhibition (Ratio %) SERT [3] [%] | IC50 [3] [µM] |
| --- | --- | --- | --- | --- | --- | --- |
| O=C(NCCN1CCC(c2c[nH]c3ccccc23)CC1)c1cc2ccccc2[nH]1 [Example 37, N-(2-(4-(1H-indol-3-yl)piperidin-1-yl)ethyl)-1H-indol-2-carboxamide] | 38.64 | – | 76.15 | – | 32.42 | – |
| O=C(NCCN1CCN(c2cccc(C(F)(F)F)c2)CC1)c1ccc(Cl)c(Cl)c1 [Example 12, 3,4-dichloro-N-(2-(4-(3-(trifluoromethyl)phenyl)piperazin-1-yl)ethyl)benzamide] | 103.97 | – | 94.42 | – | 93.46 | – |
| O=C(NCCN1CCC(Cc2ccc(Cl)c(Cl)c2)CC1)c1ccc2cc(Br)ccc2c1 [Example 9, 6-bromo-N-(2-(4-(3,4-dichlorobenzyl)piperidin-1-yl)ethyl)-2-naphthamide] | 78.56 | 2.91 | 98.42 | – | 9.92 | 3.07 |
| O=C(NCCN1CCC(Cc2ccccc2)CC1)c1cc2cc(F)c(F)cc2[nH]1 [Example 32, N-(2-(4-benzylpiperidin-1-yl)ethyl)-5,6-difluoro-1H-indol-2-carboxamide] | 28.03 | 0.824 | 66.78 | 1.47 | 54.81 | 2.04 |
| O=C(NCCN1CCN(Cc2ccc(F)c(F)c2)CC1)c1ccc(Cl)c(Cl)c1 [Example 16, 3,4-dichloro-N-(2-(4-(3,4-difluorobenzyl)piperazin-1-yl)ethyl)benzamide] | 85.54 | – | 82.44 | – | 113.34 | – |
| O=C(NCCN1CCC(Cc2ccccc2)CC1)c1cc2cc(Cl)ccc2[nH]1 [Example 31, N-(2-(4-benzylpiperidin-1-yl)ethyl)-5-chloro-1H-indol-2-carboxamide] | 31.52 | 1.73 | 72.60 | 4.35 | 58.09 | – |
| O=C(NCCN1CCC(c2ccc(Cl)c(Cl)c2)CC1)c1cc2ccccc2[nH]1 [Example 28, N-(2-(4-(3,4-dichlorophenyl)piperidin-1-yl)ethyl)-1H-indol-2-carb oxamide] | 37.16 | 0.225 | 88.77 | – | 82.81 | – |
| O=C(CCC(=O)N1CCC(Cc2ccccc2)CC1)Nc1cc2ccccc2[nH]1 [Example 77, 4-(4-benzylpiperidin-1-yl)-N-(1H-indol-2-yl)-4-oxobutanamide] | 111.32 | – | 91.05 | – | 98.61 | – |
| O=C(c1cc2ccccc2[nH]1)N1CCC(Cc2ccccc2)CC1 [Example 26, (4-benzylpiperidin-1-yl) (1H-indol-2-yl)methanone] | 124.32 | – | 92.07 | – | 113.81 | – |
| O=C(NCCN1CCN(c2ccc(Cl)c(Cl)c2)CC1)c1cc2ccccc2[nH]1 [Example 24, N-(2-(4-(3,4-dichlorophenyl)piperazin-1-yl)ethyl)-1H-indol-2-carboxamide] | 43.28 | 8.03 | 107.75 | – | 59.92 | > 10 |
| O=C(NCCN1CCN(Cc2ccccc2)CC1)c1ccc2cc(Br)ccc2c1 [Example 5, N-(2-(4-benzylpiperazin-1-yl)ethyl)-6-bromo-2-naphthamide] | 96.26 | – | 94.24 | – | 76.90 | – |
| O=C(NCCN1CCC(Cc2ccc(F)c(F)c2)CC1)c1cc2ccccc2[nH]1 [Example 27, N-(2-(4-(3,4-difluorobenzyl)piperidin-1-yl)ethyl)-1H-indol-2-carboxamide] | 71.77 | – | 69.72 | – | 75.39 | – |
